Measured values published in patent US10221163B2 (priority 2015, dated 2019).
Read-outs that look alike come from different tables or passages of the source.

Key:
[1] = test system: Serratia marcescens expressing IMP-1 (CL5741); format: cell-based; settings: for Serratia marcescens expressing IMP-1 (CL5741) MITC95: with imipenem 1 μg/ml, 95% inhibition of bacterial growth; for Serratia marcescens MITC95: IMP-1 strain CL5741, with imipenem 1 μg/ml, 95% inhibition of growth
Procedure, shortened: (§1)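 Clinical strains grown overnight on blood agar at 35°C, colonies suspended in saline, diluted 1:100 into 1.1×CAMHB. Test compound titrated with imipenem at 1 μg/ml; incubated 22–24 h at 35°C, growth read by absorbance.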

[2] = test system: Escherichia coli expressing NDM-1 (CLB30005, CLB30016); format: cell-based; settings: with imipenem 1 μg/ml; for Escherichia coli expressing NDM-1 (CLB30016) MITC95: 95% inhibition of bacterial growth; for Escherichia coli MITC95: NDM-1 strain, 95% inhibition of growth
Procedure, shortened: as §1

[3] = test system: Klebsiella pneumoniae expressing VIM-1 (IHMA599644); format: cell-based; settings: for Klebsiella pneumoniae expressing VIM-1 (IHMA599644) MITC95: with imipenem 1 μg/ml, 95% inhibition of bacterial growth; for Klebsiella pneumoniae MITC95: VIM-1 strain IHMA599644, with imipenem 1 μg/ml, 95% inhibition of growth
Procedure, shortened: as §1

VIM-1 = VIM-1 (Pseudomonas aeruginosa (strain ATCC 15692 / DSM 22644 / CIP 104116 / JCM 14847 / LMG 12228 / 1C / PRS 101 / PAO1), UniProt A0A0F7KYQ8); assay: biochemical; settings: CCF2-FA substrate, 30 pM enzyme, 2 hours at 25° C.
Procedure, shortened: (§2)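 Inhibitor was mixed with the metallo-β-lactamase and CCF2-FA. After 2 hours at 25° C, fluorescence of the coumarin–fluorescein cephalosporin substrate was read. IC50 was calculated with a 4-parameter fit.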

[4] = test system: Pseudomonas aeruginosa MB9798 vs MB9799
Procedure, shortened: (§3)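 Microbroth MIC tests in PAO1-background strains with fixed imipenem and/or ceftazidime, usually at the CLSI breakpoint, plus fixed class A/C β-lactamase inhibitor against AmpC. MBL inhibitor titrated; concentration restoring susceptibility recorded and compared as fold difference between efflux+ MB9798 and efflux− MB9799.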

[5] = test system: Pseudomonas aeruginosa efflux+ (MB9798), IMP-1; format: cell-based; parameters: Concentration of metallo-β-lactamase inhibitor which restores susceptibility of efflux + (MB9798) strain to imipenem: unit not given here; settings: C, D serine β-lactamase inhibitor closely related to relebactam; for P. aeruginosa expressing IMP-1, efflux + (MB9798) MITC95: concentration restoring susceptibility to imipenem at 2 μg/mL in the presence of a class A; for Concentration of metallo-β-lactamase inhibitor which restores susceptibility of efflux + (MB9798) strain to imipenem: imipenem at 2 μg/mL, in the presence of a class A
Procedure, shortened: as §3

[6] = test system: Pseudomonas aeruginosa efflux− (MB9799), IMP-1; format: cell-based; settings: C, D serine β-lactamase inhibitor closely related to relebactam; for P. aeruginosa expressing IMP-1, efflux − (MB9799) MITC95: concentration restoring susceptibility to imipenem at 2 μg/mL in the presence of a class A; for Concentration of metallo-β-lactamase inhibitor which restores susceptibility of efflux − (MB9799) strain to imipenem: imipenem at 2 μg/mL, in the presence of a class A
Procedure, shortened: as §3

NDM-1 = NDM-1 (Klebsiella pneumoniae, UniProt C7C422); assay: biochemical; format: biochemical; settings: CCF2-FA substrate, 1 pM enzyme, 2 hours at 25° C.
Procedure, shortened: as §2

IMP-1 = IMP-1 (Serratia marcescens, UniProt P52699); assay: biochemical; format: biochemical; settings: fluorescence assay, CCF2-FA substrate, 2 pM enzyme, 2 hours at 25° C.; read-out: IMP-1 IC50
Procedure, shortened: as §2

[7] = fluorescence assay, read-out: VIM-1 IC50
[8] = ratio MITC95 PA_9798/MITC95 PA_9799
[9] = fluorescence assay, read-out: NDM-1 IC50
[10] = fold difference between efflux+ (MB9798) and efflux− (MB9799) strains, imipenem at 2 μg/mL

NDM-1, sequence (C7C422 whole entry, looked up, species assumed): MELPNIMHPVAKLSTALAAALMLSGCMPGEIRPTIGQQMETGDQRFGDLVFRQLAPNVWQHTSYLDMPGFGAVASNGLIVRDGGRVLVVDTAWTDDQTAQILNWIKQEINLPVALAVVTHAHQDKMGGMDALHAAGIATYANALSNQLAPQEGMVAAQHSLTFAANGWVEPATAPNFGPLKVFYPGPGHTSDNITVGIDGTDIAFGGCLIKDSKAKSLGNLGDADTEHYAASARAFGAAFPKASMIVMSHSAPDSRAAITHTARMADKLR
IMP-1, sequence (P52699 whole entry, looked up, species assumed): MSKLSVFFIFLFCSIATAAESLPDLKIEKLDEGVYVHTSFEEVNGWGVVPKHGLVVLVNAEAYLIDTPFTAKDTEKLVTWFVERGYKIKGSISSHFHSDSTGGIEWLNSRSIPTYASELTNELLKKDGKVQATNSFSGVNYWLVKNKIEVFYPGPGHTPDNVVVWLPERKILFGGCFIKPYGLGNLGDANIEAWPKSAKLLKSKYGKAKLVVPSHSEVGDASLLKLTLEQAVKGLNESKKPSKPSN

Row | Structure (SMILES) | Serratia marcescens expressing IMP-1 (CL5741) MITC95 [1] | Escherichia coli expressing NDM-1 (CLB30016) MITC95 [2] | Klebsiella pneumoniae expressing VIM-1 (IHMA599644) MITC95 [3] | IC50 (VIM-1; [7]) | Efflux ratio [4, 8] | P. aeruginosa expressing IMP-1, efflux + (MB9798) MITC95 [5] | P. aeruginosa expressing IMP-1, efflux − (MB9799) MITC95 [6] | IC50 (NDM-1; [9]) | IC50 (IMP-1) | IC50 (VIM-1; VIM-1 IC50, fluorescence assay) | IC50 (NDM-1; NDM-1 IC50, fluorescence assay) | Serratia marcescens MITC95 [1] | Escherichia coli MITC95 [2] | Klebsiella pneumoniae MITC95 [3] | Efflux ratio [4, 10] | Concentration of metallo-β-lactamase inhibitor which restores susceptibility of efflux + (MB9798) strain to imipenem [5] | Concentration of metallo-β-lactamase inhibitor which restores susceptibility of efflux − (MB9799) strain to imipenem [6]
1 | NS(=O)(=O)c1ccc(-c2cccc3[nH]c(C(=O)O)nc23)c(-c2nn[nH]n2)c1S(N)(=O)=O [Example 8, 4-(3,4-disulfamoyl-2-(2H-tetrazol-5-yl)phenyl)-1H-benzo[d]imidazole-2-carboxylic acid] | 3.125 µM | 1.563 µM | 6.25 µM | 0.287 nM | 1.00 | 1.563 µM | 1.563 µM | 0.123 nM | 0.361 nM | – | – | – | – | – | – | – | –
2 | Nc1nc2c(-c3ccc(S(=O)(=O)NCCC(N)C(F)F)c(S(N)(=O)=O)c3-c3nnn[nH]3)cccc2s1.O=CO (stereo not drawn) [Example 124, 4-(4-(2-aminobenzo[d]thiazol-4-yl)-2-sulfamoyl-3-(1H-tetrazol-5-yl)phenylsulfonamido)-1,1-difluorobutan-2-aminium formate] | 3.125 µM | 12.5 µM | 12.5 µM | – | 4.00 | 12.5 µM | 3.125 µM | – | 0.222 nM | 0.254 nM | 0.00652 nM | – | – | – | – | – | –
3 | NCC(CN)NS(=O)(=O)c1ccc(-c2cccc3[nH]nnc23)c(-c2nn[nH]n2)c1S(N)(=O)=O [Example 403] | – | – | – | – | – | – | – | 0.0633 nM | 0.531 nM | 0.175 nM | – | 1.563 µM | 1.563 µM | 3.125 µM | 1.00 | 1.563 | 1.563
4 | N[C@H](CO)c1nc2c(-c3ccc(S(=O)(=O)N[C@H]4CNC[C@H]4N)c(S(N)(=O)=O)c3-c3nn[nH]n3)cccc2[nH]1 [Example 323, 4-(2-((S)-1-amino-2-hydroxyethyl)-1H-benzo[d]imidazol-4-yl)-N1-((3S,4R)-4-aminopyrrolidin-3-yl)-3-(2H-tetrazol-5-yl)benzene-1,2-disulfonamide] | – | – | – | – | 1.00 | 1.563 µM | 1.563 µM | 0.219 nM | 3.39 nM | 0.321 nM | – | 3.125 µM | 1.563 µM | 3.125 µM | – | – | –
5 | Cn1c(N)nc2c(-c3ccc(S(=O)(=O)N[C@@H]4CCNC4)c(S(N)(=O)=O)c3-c3nn[nH]n3)cccc21 [Example 164, 4-(2-amino-1-methyl-1H-benzo[d]imidazol-4-yl)-N^1-((R)-pyrrolidin-3-yl)-3-(2H-tetrazol-5-yl)benzene-1,2-disulfonamide] | 0.7813 µM | 0.3906 µM | 0.7813 µM | 0.105 nM | 1.00 | 0.7813 µM | 0.7813 µM | 0.0378 nM | 0.272 nM | – | – | – | – | – | – | – | –
6 | NCCNS(=O)(=O)c1ccc(-c2cccc3[nH]nnc23)c(-c2nn[nH]n2)c1S(N)(=O)=O [Example 236] | 0.7813 µM | 3.125 µM | 1.563 µM | 0.13 nM | 1.00 | 0.7813 µM | 0.7813 µM | 0.0647 nM | 0.544 nM | – | – | – | – | – | – | – | –
7 | Cc1cc(-c2ccc(S(=O)(=O)NC[C@H](O)CN)c(S(N)(=O)=O)c2-c2nn[nH]n2)cnc1N [Example 477, (R)—N1-(3-amino-2-hydroxypropyl)-4-(6-amino-5-methylpyridin-3-yl)-3-(2H-tetrazol-5-yl)benzene-1,2-disulfonamide] | – | – | – | 0.132 nM | – | – | – | 0.28 nM | 0.842 nM | – | – | 0.7813 µM | 0.1953 µM | 1.563 µM | 2.00 | 1.563 | 0.7813
8 | NCc1nc2c(-c3ccc(S(=O)(=O)NC(CN)CN)c(S(N)(=O)=O)c3-c3nn[nH]n3)cccc2[nH]1 [Example 385, 4-(2-(Aminomethyl)-1H-benzo[d]imidazol-4-yl)-N1-(1,3-diaminopropan-2-yl)-3-(2H-tetrazol-5-yl)benzene-1,2-disulfonamide] | – | – | – | 0.13 nM | 1.00 | 0.7813 µM | 0.7813 µM | 0.111 nM | 0.782 nM | – | – | 0.7813 µM | 0.7813 µM | 1.563 µM | – | – | –
9 | NC[C@@H](CO)NS(=O)(=O)c1ccc(-c2cccc3sc(N)nc23)c(-c2nnn[nH]2)c1S(N)(=O)=O [Example 201, (S)—N^1-(1-amino-3-hydroxypropan-2-yl)-4-(2-aminobenzo[d]thiazol-4-yl)-3-(1H-tetrazol-5-yl)benzene-1,2-disulfonamide] | 1.563 µM | 1.563 µM | 3.125 µM | – | 0.50 | 0.7813 µM | 1.563 µM | 0.0199 nM | 0.109 nM | 0.125 nM | – | – | – | – | – | – | –
10 | Nc1ccc(-c2ccc(S(=O)(=O)N[C@H]3CNC[C@H]3O)c(S(N)(=O)=O)c2-c2nn[nH]n2)cn1 [Example 410] | – | – | – | 0.374 nM | – | – | – | 0.322 nM | 0.681 nM | – | – | 0.7813 µM | 0.3906 µM | 1.563 µM | 1.00 | 0.7813 | 0.7813
